# Results taken from patent US8318762B2, “Pyrazolospiroketone acetyl-CoA carboxylase inhibitors” (Pfizer Inc., priority 2008, dated 2012).
# pIC50: −log10 of the molar value.
# What was measured:
# recombinant human ACC2 = target: T1, recombinant human ACC2 (Homo sapiens, UniProt O00763); test: Measurement of human ACC2 inhibition (recombinant hACC2 Transcreener ADP detection FP assay); type: biochemical; details: recombinant hACC2 transcreener assay; read-out: rhACC2 IC50
# T1 construct: a full length Cytomax clone of ACC2 was purchased from Cambridge Bioscience Limited; made in house; host or cells: CHO cells (tetracycline induction, pcDNA5 FRT TO-TOPO); purified on a Softlink Soft Release Avidin column
# Method in brief: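 Purified hACC2 from tetracycline-induced CHO cells (avidin-column eluate) was run in 50 mM HEPES pH7.5, 5 mM MgCl2, 5 mM citrate, 2 mM DTT, 0.5 mg/mL BSA with 30 μM acetyl-CoA, 50 μM ATP and 8 mM KHCO3. Reaction lasted 1 hour at room temperature; ADP was detected by Transcreener FP after another 1 hour.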
# rat liver ACC = rat liver ACC (Rattus norvegicus, UniProt P11497); type: biochemical; details: rat liver ACC radio enzymatic assay
# Description: [1] Preparation of rat liver ACC. Rat liver ACC was obtained from rat liver based upon standard procedures such as those described by Thampy and Wakil (J. Biol. Chem. 260: 6318-6323; 1985) using the following method.
# Male CD rats weighing 150-200 g were fasted for 18-24 hours and then fed a high sucrose diet (AIN-76A rodent diet; Cat # D10001, Research Diets Inc., New Brunswick, N.J.), for 3 days at which time they were sacrificed by CO2 asphyxiation. The livers were removed, rinsed in ice-cold phosphate-buffered saline (PBS), and homogenized in 5 volumes of homogenization buffer (50 mM potassium phosphate, pH 7.5, 10 mM EDTA, 10 mM 2-mercaptoethanol, 2 mM benzamidine, 0.2 mM phenylmethylsulfonylfluoride (PMSF), 5 mg/L each leupeptin, aprotinin, and antitrypsin) in a Waring® blender for 1 minute at 4° C. All subsequent operations were carried out at 4° C. The homogenate has made 3% with respect to polyethylene glycol (PEG) by the addition of 50% PEG solution and centrifuged at 20,000×g for 15 minutes. The resulting supernatant was adjusted to 5% PEG with the addition of 50% PEG solution and stirred for 5 minutes. The pellet (contains ACC activity) was collected by centrifugation at 20,000×g for 20 minutes, rinsed with ice-cold doubly distilled water to remove excess PEG and re-suspended in one-fourth the original homogenate volume with homogenization buffer. Ammonium sulfate (200 g/liter) was slowly added with stirring. After 45 minutes the enzyme is collected by centrifugation for 30 minutes at 20,000×g, re-suspended in 10 mL of 50 mM HEPES, pH7.5, 0.1 mM DTT, 1.0 mM EDTA, and 10% glycerol and desalted on a Sephadex™ G-25 column (2.5 cm×50 cm) (Pharmacia, Piscataway N.J. now GE Healthcare) equilibrated with the same buffer. The desalted enzyme preparation was stored in aliquots at −70° C. Immediately prior to use, frozen rat liver ACC aliquots were thawed, diluted to 500 μg/mL in buffer containing 50 mM HEPES, pH7.5, 10 mM MgCl2, 10 mM tripotassium citrate, 2.0 mM dithiothreitol (DTT), and 0.75 mg/mL fatty acid-free bovine serum albumin (BSA) and pre-incubated at 37° C. for 30 minutes.
# [2] Measurement of rat liver ACC inhibition. For measurement of ACC activity and assessment of ACC inhibition, test compounds were dissolved in dimethylsulfoxide (DMSO) and 1 μL aliquots were added to a clear bottom, 96-well plates (Perkin-Elmer PN#1450-514). Control wells contain 1 μL of DMSO alone or 1 μL of high inhibition compound. The enzyme obtained from rat liver as described above was activated in Enzyme buffer at 37° C. for 30 minutes prior to addition to compound plate. All wells receive 75 μL of activated enzyme (1.33×) in a buffer containing 50 mM HEPES, pH7.5, 7.5 mM MgCl2 7.5 mM tripotassium citrate, 2 mM DTT, 50 mg/mL BSA. The activated enzyme was pre-incubated with the cmpd for 10 minute prior to initiating the reaction through the addition of 25 μL of substrate solution containing 50 mM HEPES, pH7.5, 7.5 mM MgCl2 7.5 mM tripotassium citrate, 2 mM DTT, 50 mg/mL BSA, 120 μM acetyl-CoA, 8.0 mM ATP, 38.4 mM KHCO3, and 1.6 mM NaH[^14C]O3 ([…]). The final substrate concentrations in the reaction were 30 μM Acetyl-CoA, 9.6 mM KHCO3, 0.4 mM NaH[^14C]O3, and 2 mM ATP. The reaction was terminated after 10 mins by the addition of 25 μL 3N HCl and the plates were dried at 50° C. for a minimum 20 hrs. 30 μL of water was added to the dried plate and mixed for 5 minutes. 95 μL of Optiphase Supermix liquid scintillation fluid (Perkin Elmer, Waltham, Mass.) was added and the plates are mixed for 20 minutes. Incorporation of ^14C into MCoA was measured using a Wallac Trilux 1450 Microbeta LSC luminescence counter.
# [1] = tested on: malonyl-CoA levels in muscle tissue; test: Acute in vivo assessment of ACC inhibition: malonyl-CoA levels in muscle tissue (quadriceps); set-up: species or system male Sprague-Dawley Rats; details: relative to chow-fed vehicle control group, % decrease +/- SEM
# Description: (§1) The ACC inhibitory activity of the compound of the present invention can be confirmed in vivo by evaluation of their ability to reduce malonyl-CoA levels in liver and muscle tissue from treated animals.
# (§2) Measurement of malonyl-CoA production inhibition in experimental animals. In this method, male Sprague-Dawley Rats, maintained on standard chow and water ad libitum (225-275 g), were randomized prior to the study. Animals were either fed, or fasted for 18 hours prior to the beginning of the experiment. Two hours into the light cycle the animals were orally dosed with a volume of 5 mL/kg, (0.5% methyl cellulose; vehicle) or with the appropriate compound (prepared in vehicle). Fed vehicle controls were included to determine baseline tissue malonyl-CoA levels while fasted animals were included to determine the effect fasting had on malonyl-CoA levels. One hour after compound administration the animals were asphyxiated with CO2 and the tissues were removed. Specifically, blood was collected by cardiac puncture and placed into BD Microtainer tubes containing EDTA (BD Biosciences, NJ), mixed, and placed on ice. Plasma was used to determine drug exposure. Liver and quadriceps were removed, immediately freeze-clamped, wrapped in foil and stored in liquid nitrogen.
# (§3) Tissues were pulverized under liquid N2 to ensure uniformity in sampling. Malonyl-CoA was extracted from the tissue (150-200 mg) with 5 volumes 10% […] in Lysing Matrix A (MP Biomedicals, PN 6910) in a FastPrep FP120 (Thermo Scientific, speed=5.5; for 45 seconds). The supernatant containing malonyl-CoA was removed from the cell debris after centrifugation at 15000×g for 30 minutes (Eppendorf Centrifuge 5402). Samples were stably frozen at −80 C until analysis is completed.
# (§4) Analysis of malonyl CoA levels in liver and muscle tissue can be evaluated using the following methodology.
# (§5) The method utilizes the following materials: Malonyl-CoA tetralithium salt and malonyl-^13C3-CoA trilithium salt which were purchased from Isotec (Miamisburg, Ohio, USA), sodium perchlorate (Sigma, cat no. 410241), trichloroacetic acid (ACROS, cat no. 42145), phosphoric acid (J. T. Baker, cat no. 0260-01), ammonium formate (Fluke, cat no. 17843), methanol (HPLC grade, J. T. Baker, cat no. 9093-33), and water (HPLC grade, J. T. Baker, 4218-03) were used to make the necessary mobile phases. Strata-X on-line solid phase extraction columns, 25 μm, 20 mm×2.0 mm I.D (cat no. 00M-S033-B0-CB) were obtained from Phenomenex (Torrance, Calif., USA). SunFire C18 reversed-phase columns, 3.5 μm, 100 mm×3.0 mm I.D. (cat no. 186002543) were purchased from Waters Corporation (Milford, Mass., USA).
# (§6) This method may be performed utilizing the following equipment. Two-dimensional chromatography using an Agilent 1100 binary pump, an Agilent 1100 quaternary pump and two Valco Cheminert 6-port two position valves. Samples were introduced via a LEAP HTC PAL auto sampler with Peltier cooled stack maintained at 10° C. and a 20 μL sampling loop. The needle wash solutions for the autosampler are 10% trichloroacetic acid in water (w/v) for Wash 1 and 90:10 methanol:water for Wash 2. The analytical column (Sunfire) was maintained at 35° C. using a MicroTech Scientific Micro-LC Column Oven. The eluant was analyzed on an ABI Sciex API3000 triple quadrupole mass spectrometer with Turbo Ion Spray.
# (§7) Two-dimensional chromatography was performed in parallel using distinct gradient elution conditions for on-line solid phase extraction and reversed-phase chromatography. The general design of the method was such that the first dimension was utilized for sample clean-up and capture of the analyte of interest followed by a brief coupling of both dimensions for elution from the first dimension onto the second dimension. The dimensions were subsequently uncoupled allowing for gradient elution of the analyte from the second dimension for quantification while simultaneously preparing the first dimension for the next sample in the sequence. […]
# [2] = tested on: malonyl-CoA levels in liver; test: Acute in vivo assessment of ACC inhibition: malonyl-CoA levels in liver tissue; set-up: species or system male Sprague-Dawley Rats; details: relative to chow-fed vehicle control group, % decrease +/- SEM
# Description: as §1, §2, §3, §4, §5, §6, §7
# T1 sequence (O00763 whole entry): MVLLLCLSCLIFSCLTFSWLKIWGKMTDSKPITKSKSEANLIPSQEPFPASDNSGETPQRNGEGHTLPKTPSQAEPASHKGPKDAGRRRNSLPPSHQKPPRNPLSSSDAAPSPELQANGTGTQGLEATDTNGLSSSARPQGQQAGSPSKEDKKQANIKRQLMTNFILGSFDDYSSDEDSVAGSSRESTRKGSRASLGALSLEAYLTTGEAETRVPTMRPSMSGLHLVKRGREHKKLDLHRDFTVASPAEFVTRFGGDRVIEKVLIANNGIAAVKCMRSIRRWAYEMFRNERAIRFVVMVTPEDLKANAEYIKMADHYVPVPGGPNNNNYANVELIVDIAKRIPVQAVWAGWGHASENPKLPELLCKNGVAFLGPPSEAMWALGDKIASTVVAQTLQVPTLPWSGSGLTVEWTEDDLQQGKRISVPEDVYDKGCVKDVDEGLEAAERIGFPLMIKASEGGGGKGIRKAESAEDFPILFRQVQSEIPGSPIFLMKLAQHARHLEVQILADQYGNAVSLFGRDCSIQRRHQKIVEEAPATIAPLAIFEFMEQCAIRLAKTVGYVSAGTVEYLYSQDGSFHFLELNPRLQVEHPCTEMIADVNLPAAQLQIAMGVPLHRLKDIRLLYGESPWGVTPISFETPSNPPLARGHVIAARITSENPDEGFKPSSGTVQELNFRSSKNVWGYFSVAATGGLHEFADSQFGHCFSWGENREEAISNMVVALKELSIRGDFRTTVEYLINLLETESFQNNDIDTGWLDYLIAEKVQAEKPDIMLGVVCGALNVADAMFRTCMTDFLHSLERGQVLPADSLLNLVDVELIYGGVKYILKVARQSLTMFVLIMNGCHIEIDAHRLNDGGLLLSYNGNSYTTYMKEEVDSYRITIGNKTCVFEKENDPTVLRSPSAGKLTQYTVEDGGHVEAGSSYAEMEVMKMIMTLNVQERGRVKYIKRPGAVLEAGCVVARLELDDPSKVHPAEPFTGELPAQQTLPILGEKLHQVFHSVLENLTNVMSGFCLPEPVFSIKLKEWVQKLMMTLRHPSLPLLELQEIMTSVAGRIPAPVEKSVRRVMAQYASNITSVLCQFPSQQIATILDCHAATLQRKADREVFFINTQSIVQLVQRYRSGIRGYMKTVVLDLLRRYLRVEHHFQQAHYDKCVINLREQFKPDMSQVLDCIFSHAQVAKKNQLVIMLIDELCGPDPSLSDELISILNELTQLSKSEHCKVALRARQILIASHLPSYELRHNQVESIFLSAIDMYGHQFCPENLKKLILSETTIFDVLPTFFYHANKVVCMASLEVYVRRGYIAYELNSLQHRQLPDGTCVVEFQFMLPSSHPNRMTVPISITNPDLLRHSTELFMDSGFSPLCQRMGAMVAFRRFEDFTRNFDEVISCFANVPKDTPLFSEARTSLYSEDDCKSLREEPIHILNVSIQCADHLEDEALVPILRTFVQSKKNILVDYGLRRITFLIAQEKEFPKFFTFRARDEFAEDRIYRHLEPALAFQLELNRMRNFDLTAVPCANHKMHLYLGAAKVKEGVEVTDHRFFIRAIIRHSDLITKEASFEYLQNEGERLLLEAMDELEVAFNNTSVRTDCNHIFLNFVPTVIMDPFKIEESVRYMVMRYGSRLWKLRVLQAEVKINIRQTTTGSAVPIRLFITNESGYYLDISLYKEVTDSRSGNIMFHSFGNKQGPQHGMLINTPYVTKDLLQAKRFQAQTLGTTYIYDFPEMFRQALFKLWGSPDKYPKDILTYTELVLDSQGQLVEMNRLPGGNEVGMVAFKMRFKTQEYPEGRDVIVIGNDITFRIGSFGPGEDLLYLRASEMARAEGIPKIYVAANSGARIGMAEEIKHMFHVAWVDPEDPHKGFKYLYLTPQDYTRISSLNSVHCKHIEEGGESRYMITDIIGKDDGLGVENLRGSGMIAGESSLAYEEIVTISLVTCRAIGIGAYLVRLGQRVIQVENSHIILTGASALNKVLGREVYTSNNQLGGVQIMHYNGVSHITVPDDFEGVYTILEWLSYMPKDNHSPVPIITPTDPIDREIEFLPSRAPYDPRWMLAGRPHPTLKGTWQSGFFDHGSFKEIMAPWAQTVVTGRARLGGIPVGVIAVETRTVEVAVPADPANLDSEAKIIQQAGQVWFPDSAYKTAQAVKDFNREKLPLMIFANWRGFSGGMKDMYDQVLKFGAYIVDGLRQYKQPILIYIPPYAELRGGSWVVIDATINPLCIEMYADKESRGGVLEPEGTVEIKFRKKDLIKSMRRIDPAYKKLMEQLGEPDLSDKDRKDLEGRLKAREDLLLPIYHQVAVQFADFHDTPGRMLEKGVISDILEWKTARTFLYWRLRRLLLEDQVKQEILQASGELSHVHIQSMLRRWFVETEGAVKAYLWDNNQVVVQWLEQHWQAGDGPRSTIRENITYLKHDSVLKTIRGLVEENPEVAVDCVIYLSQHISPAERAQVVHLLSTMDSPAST
SMILES,pIC50 (recombinant human ACC2),pIC50 (rat liver ACC),also measured
CCC(C)n1cc2c(n1)C(=O)CC1(CCN(C(=O)c3ccc4[nH]nc(C)c4c3)CC1)O2 (stereo not drawn) [1.141],7.72,7.49,–
CCn1nc2c(c1C)OC1(CCN(C(=O)c3cc(C)c4[nH]ncc4c3)CC1)CC2=O [1.023],7.51,7.55,–
CCn1nc2c(c1C)OC1(CCN(C(=O)c3cc(C)c4[nH]cc(C)c4c3)CC1)CC2=O [4.001],7.54,8.05,–
Cc1cc(C(=O)N2CCC3(CC2)CC(=O)c2nn(C4CCCC4)cc2O3)cc2cn[nH]c12 [1.038],8.05,7.85,–
CCC(C)n1nc2c(c1C)OC1(CCN(C(=O)c3ccc4[nH]nc(C)c4c3)CC1)CC2=O (stereo not drawn) [1.137],8.05,7.77,–
Cc1cc(C(=O)N2CCC3(CC2)CC(=O)c2nn(C(C)(C)C)cc2O3)cc2cn[nH]c12 [1.042],8.40,–,Percent decrease in Muscle Malonyl-CoA (quadriceps) ([1]; dose 1 mg/kg): 29.90 (5.21) %; Percent decrease in Muscle Malonyl-CoA (quadriceps) ([1]; dose 3 mg/kg): 27.60 (5.87) %; Percent decrease in Muscle Malonyl-CoA (quadriceps) ([1]; dose 10 mg/kg): 61.60 (5.38) %; Percent decrease in Muscle Malonyl-CoA (quadriceps) ([1]; dose 30 mg/kg): 74.70 (1.37) %; Percent decrease in Liver Malonyl-CoA ([2]; dose 1 mg/kg): 41.87 (2.70) %; Percent decrease in Liver Malonyl-CoA ([2]; dose 3 mg/kg): 48.07 (8.08) %; Percent decrease in Liver Malonyl-CoA ([2]; dose 10 mg/kg): 71.81 (2.36) %; Percent decrease in Liver Malonyl-CoA ([2]; dose 30 mg/kg): 86.50 (0.72) %
Cc1cc(C(=O)N2CCC3(CC2)CC(=O)c2nn(C(C)(C)C)cc2O3)cc2ccc(=O)[nH]c12 [11.002],7.96,–,–
Cc1n[nH]c2c(Cl)cc(C(=O)N3CCC4(CC3)CC(=O)c3nn(C(C)(C)C)cc3O4)cc12 [1.110],8.52,–,–
